Assay results taken from EP3696177A1, “HETEROCYCLIC COMPOUNDS FOR THE CONTROL OF INVERTEBRATE PESTS” (BASF SE, priority 2019, dated 2020).
Read-outs that look alike come from different tables or passages of the source.

How the values were obtained:
Format in all cases: in vivo
Myzus persicae = experiment: Green peach aphid (Myzus persicae) artificial diet/membrane systemic test; details: 72 h, read-out: mortality in comparison with untreated controls
Description: For evaluating control of green peach aphid (Myzus persicae) through systemic means the test unit consisted of 96-well-microtiter plates containing liquid artificial diet under an artificial membrane.
The compounds were formulated using a solution containing 75% v/v water and 25% v/v DMSO. Different concentrations of formulated compounds were pipetted into the aphid diet, using a cus-tom built pipetter, at two replications.
After application, 5 - 8 adult aphids were placed on the artificial membrane inside the microtiter plate wells. The aphids were then allowed to suck on the treated aphid diet and incubated at about 23 + 1°C and about 50 + 5 % relative humidity for 3 days. Aphid mortality and fecundity was then visually assessed.

Caenorhabditis elegans = Caenorhabditis elegans liquid diet microtiter plate test; details: 96 h, read-out: mortality in comparison with untreated controls (nematode motility (mortality))
Experimental: For evaluating control of Caenorhabditis elegans through contact or systemic means the test unit consisted of 96-well-microtiter plates containing a liquid diet.
The compounds or mixtures were formulated using a solution containing 75% water and 25% DMSO. Different concentrations of formulated compounds were sprayed into the microtiter plate wells at 5µl per well, using a custom built micro atomizer, at two replications. Mixed instar 60-100 C. elegans were transferred into the micro-titer plate wells. After application, the nematodes were incubated at 18 + 1°C, 70 + 5 % RH for 4 days. Nematode motility (mortality) was then visually assessed.

Nephotettix virescens = experiment: Rice green leafhopper (Nephotettix virescens) spray test on rice seedlings; details: adults, after 72 hours, read-out: mortality in comparison with untreated controls
Experimental: Four to five-week old rice seedlings with cut upper leaf portion are cleaned and washed 24 hours before spraying. The active compounds are formulated in 1:1 acetone:water (vol:vol), and 0.01% vol/vol surfactant (Kinetic) is added. Potted rice seedlings are sprayed with 5-6 ml test solution, air dried, covered with Mylar cages and inoculated with 10 adults. Treated rice plants are kept at about 28-29°C and relative humidity of about 50-60%. Percent mortality is recorded after 72 hours.

Heliothis virescens = experiment: Tobacco budworm (Heliothis virescens) insect diet microtiter plate test; details: 120 h, read-out: mortality in comparison with untreated controls (egg and larval mortality)
Experimental: For evaluating control of tobacco budworm (Heliothis virescens) the test unit consisted of 96-well-microtiter plates containing an insect diet and 15-25 H. virescens eggs.
The compounds were formulated using a solution containing 75% v/v water and 25% v/v DMSO. Different concentrations of formulated compounds were sprayed onto the insect diet at 10 µl, us-ing a custom built micro atomizer, at two replications.
After application, microtiter plates were incubated at about 28 + 1°C and about 80 + 5 % relative humidity for 5 days. Egg and larval mortality was then visually assessed.

Aphis craccivora = experiment: Cowpea aphid (Aphis craccivora) spray test on potted cowpea plants; details: aphids of various stages, after 72 hours, read-out: mortality in comparison with untreated controls
Experimental: The active compound is dissolved at the desired concentration in a mixture of 1:1 (vol: vol) distilled water: acetone. Surfactant (Kinetic) is added at a rate of 0.01% (vol/vol). The test solution is prepared at the day of use.
Potted cowpea plants are colonized with approximately 30 - 50 aphids of various stages by man-ually transferring aphid-infested leaf clippings 24 hours before application. Plants are sprayed with the test solutions using a DeVilbiss® hand atomizer at 20- 30 psi (≈ 1.38 to 2.07 bar) after the pest population has been checked. Treated plants are maintained on light carts at about 25- 26°C. Estimate percent mortality is assessed after 72 hours.

Megoura viciae = experiment: Vetch aphid (Megoura viciae) broad bean leaf disk test; details: foliar, 120 h, read-out: mortality in comparison with untreated controls
Experimental: For evaluating control of vetch aphid (Megoura viciae) through contact or systemic means the test unit consisted of 24-well-microtiter plates containing broad bean leaf disks.
The compounds were formulated using a solution containing 75% v/v water and 25% v/v DMSO. Different concentrations of formulated compounds were sprayed onto the leaf disks at 2.5 µl, us-ing a custom built micro atomizer, at two replications.
After application, the leaf disks were air-dried and 5 - 8 adult aphids placed on the leaf disks in-side the microtiter plate wells. The aphids were then allowed to suck on the treated leaf disks and incubated at about 23 + 1°C and about 50 + 5 % relative humidity for 5 days. Aphid mortality and fecundity was then visually assessed.

Nezara viridula = experiment: Green soldier stink bug (Nezara viridula) soybean pod spray test; details: 120 h, late 3rd instar N. viridula, after 5 days, read-out: mortality in comparison with untreated controls
Experimental: The active compound is dissolved at the desired concentration in a mixture of 1:1 (vol:vol) distilled water: aceteone. Surfactant (Kinetic) is added at a rate of 0.01% (vol/vol).The test solution is prepared at the day of use.
Soybean pods are placed in 90 x 50 mm glass Petri dishes lined with moistened filter paper and inoculated with ten late 3rd instar N. viridula. Using a hand atomizer, an approximately 2 ml solution is sprayed into each Petri dish. Treated set-up is kept at about 25-26°C and relative humidity of about 65-70%. Percent mortality is recorded after 5 days.

Tetranychus kanzawai = experiment: Red spider mite (Tetranychus kanzawai) spray test on cowpea beans; details: 72 h, read-out: mortality in comparison with untreated controls
Experimental: The active compound is dissolved at the desired concentration in a mixture of 1:1 (vol:vol) distilled water: acetone. Add surfactant (Kinetic) is added at a rate of 0.01% (vol/vol). The test solution is prepared at the day of use.
Potted cowpea beans of 4-5 days of age are cleaned with tap water and sprayed with 1-2 ml of the test solution using air driven DeVilbiss® hand atomizer at 20- 30 psi (≈ 1,38 to 2,07 bar). The treated plants are allowed to air dry and afterwards inoculated with 30 or more mites by clipping a cassava leaf section from rearing population. Treated plants are placed inside a holding room at about 25-26°C and about 65-70% relative humidity. Estimate percent mortality is assessed 72 hours after treatment.

Aedes aegypti = experiment: whole plant or invertebrate; details: 48 h, A. aegypti larvae, incubated 2 days, read-out: mortality in comparison with untreated controls (larval mortality)
Experimental: For evaluating control of yellow fever mosquito (Aedes aegypti) the test unit consisted of 96-well-microtiter plates containing 200µl of tap water per well and 5-15 freshly hatched A. aegypti larvae.
The active compounds were formulated using a solution containing 75% (v/v) water and 25% (v/v) DMSO. Different concentrations of formulated compounds or mixtures were sprayed onto the insect diet at 2.5µl, using a custom built micro atomizer, at two replications.
After application, microtiter plates were incubated at 28 + 1°C, 80 + 5 % RH for 2 days. Larval mortality was then visually assessed.

dichromothrips corbetti = experiment: Orchid thrips floral-immersion test; details: 72 h, read-out: mortality in comparison with untreated controls
Experimental: Dichromothrips corbetti adults used for bioassay are obtained from a colony maintained continu-ously under laboratory conditions. For testing purposes, the test compound is diluted in a 1:1 mix-ture of acetone:water (vol:vol), plus Kinetic at a rate of 0.01% v/v.
Thrips potency of each compound is evaluated by using a floral-immersion technique. Each orchid petal is dipped into treatment solution and allowed to dry in Petri dishes. Treated petals are placed into individual re-sealable plastic along with about 20 adult thrips. All test arenas are held under dark condition and a temperature of about 28°C for duration of the assay. The percent mor-tality is recorded 72 hours after treatment.

Anthonomus grandis = experiment: Boll weevil (Anthonomus grandis) insect diet microtiter plate test; details: 120 h, read-out: mortality in comparison with untreated controls (egg and larval mortality)
Experimental: For evaluating control of boll weevil (Anthonomus grandis) the test unit consisted of 96-well-microtiter plates containing an insect diet and 5-10 A. grandis eggs.
The compounds were formulated using a solution containing 75% v/v water and 25% v/v DMSO. Different concentrations of formulated compounds were sprayed onto the insect diet at 5 µl, using a custom built micro atomizer, at two replications.
After application, microtiter plates were incubated at about 25 + 1°C and about 75 + 5 % relative humidity for 5 days. Egg and larval mortality was then visually assessed.

Plutella xylostella = experiment: Diamond back moth (Plutella xylostella) cabbage leaf disc dip test; details: foliar, 72 h, read-out: mortality in comparison with untreated controls
Experimental: The active compound is dissolved at the desired concentration in a mixture of 1:1 (vol:vol) distilled water: acetone. Surfactant (Kinetic) is added at a rate of 0.01% (vol/vol). The test solution is pre-pared at the day of use.
Cabbage leaf discs (60mm in diameter) are dipped in test solution and air-dried. Treated leaves are placed in petri dishes lined with moistened filter paper and inoculated with ten 3rd instar larvae. Mortality is recorded 72 hours after treatment. Feeding damage is also recorded using a scale of 0-100%.

CCN1C(=O)SC(NC(=O)c2ccc(C3=NOC(c4cc(Cl)cc(Cl)c4)(C(F)(F)F)C3)cc2Cl)C1=O (stereo not drawn) [Compound I-1-2]
> 75%: mortality at 2500 ppm (Myzus persicae) | mortality at 2500 ppm (Caenorhabditis elegans) | mortality at 300 ppm (Nephotettix virescens) | mortality at 2500 ppm (Heliothis virescens) | mortality at 300 ppm (Aphis craccivora) | mortality at 2500 ppm (Megoura viciae) | mortality at 300 ppm (Nezara viridula) | mortality at 300 ppm (Tetranychus kanzawai; topical) | mortality at 2500 ppm (Aedes aegypti) | mortality at 300 ppm (dichromothrips corbetti) | mortality at 2500 ppm (Anthonomus grandis) | mortality at 300 ppm (Plutella xylostella)

CCN1C(=O)SC(NC(=O)c2ccc(C3=NOC(c4cc(Cl)c(F)c(Cl)c4)(C(F)(F)F)C3)cc2Cl)C1=O (stereo not drawn) [Compound I-1-7]
> 75%: mortality at 2500 ppm (Myzus persicae) | mortality at 2500 ppm (Caenorhabditis elegans) | mortality at 300 ppm (Nephotettix virescens) | mortality at 2500 ppm (Heliothis virescens) | mortality at 300 ppm (Aphis craccivora) | mortality at 2500 ppm (Megoura viciae) | mortality at 300 ppm (Nezara viridula) | mortality at 300 ppm (Tetranychus kanzawai; topical) | mortality at 2500 ppm (Aedes aegypti) | mortality at 300 ppm (dichromothrips corbetti) | mortality at 2500 ppm (Anthonomus grandis) | mortality at 300 ppm (Plutella xylostella)

Cc1cc(C2=NOC(c3cc(Cl)c(F)c(Cl)c3)(C(F)(F)F)C2)ccc1C(=O)NC1SC(=O)N(C(C)C)C1=O (stereo not drawn) [Compound I-1-11]
> 75%: mortality at 2500 ppm (Myzus persicae) | mortality at 2500 ppm (Caenorhabditis elegans) | mortality at 300 ppm (Nephotettix virescens) | mortality at 2500 ppm (Heliothis virescens) | mortality at 300 ppm (Aphis craccivora) | mortality at 2500 ppm (Megoura viciae) | mortality at 300 ppm (Nezara viridula) | mortality at 300 ppm (Tetranychus kanzawai; topical) | mortality at 2500 ppm (Aedes aegypti) | mortality at 300 ppm (dichromothrips corbetti) | mortality at 2500 ppm (Anthonomus grandis) | mortality at 300 ppm (Plutella xylostella)

CN1COC(CNC(=O)c2ccc(C3=NOC(c4cc(Cl)c(F)c(Cl)c4)(C(F)(F)F)C3)cc2Cl)C1=O (stereo not drawn) [Compound I-3-5, 2-chloro-4-[5-(3,5-dichloro-4-fluoro-phenyl)-5-(trifluoromethyl)-4H-isoxazol-3-yl]-N-[(3-methyl-4-oxo-oxazolidin-5-yl)methyl]benzamide]
> 75%: mortality at 2500 ppm (Myzus persicae) | mortality at 2500 ppm (Caenorhabditis elegans) | mortality at 300 ppm (Nephotettix virescens) | mortality at 2500 ppm (Heliothis virescens) | mortality at 300 ppm (Aphis craccivora) | mortality at 2500 ppm (Megoura viciae) | mortality at 300 ppm (Nezara viridula) | mortality at 300 ppm (Tetranychus kanzawai) | mortality at 2500 ppm (Aedes aegypti) | mortality at 300 ppm (dichromothrips corbetti) | mortality at 2500 ppm (Anthonomus grandis) | mortality at 300 ppm (Plutella xylostella)

CN1COC(CNC(=O)c2ccc(C3=NOC(c4cc(Cl)c(F)c(Cl)c4)(C(F)(F)F)C3)c3c2CCC3)C1=O (stereo not drawn) [Compound I-3-1]
> 75%: mortality at 2500 ppm (Myzus persicae) | mortality at 2500 ppm (Caenorhabditis elegans) | mortality at 300 ppm (Nephotettix virescens) | mortality at 2500 ppm (Heliothis virescens) | mortality at 300 ppm (Aphis craccivora) | mortality at 2500 ppm (Megoura viciae) | mortality at 300 ppm (Nezara viridula) | mortality at 300 ppm (Tetranychus kanzawai; topical) | mortality at 2500 ppm (Aedes aegypti) | mortality at 300 ppm (dichromothrips corbetti) | mortality at 2500 ppm (Anthonomus grandis) | mortality at 300 ppm (Plutella xylostella)

CN1C(=O)SC(NC(=O)c2ccc(C3=NOC(c4cc(Cl)c(F)c(Cl)c4)(C(F)(F)F)C3)c3c2CCC3)C1=O (stereo not drawn) [Compound I-1-9]
> 75%: mortality at 2500 ppm (Myzus persicae) | mortality at 2500 ppm (Caenorhabditis elegans) | mortality at 300 ppm (Nephotettix virescens) | mortality at 2500 ppm (Heliothis virescens) | mortality at 300 ppm (Aphis craccivora) | mortality at 2500 ppm (Megoura viciae) | mortality at 300 ppm (Nezara viridula) | mortality at 300 ppm (Tetranychus kanzawai; topical) | mortality at 2500 ppm (Aedes aegypti) | mortality at 300 ppm (dichromothrips corbetti) | mortality at 2500 ppm (Anthonomus grandis) | mortality at 300 ppm (Plutella xylostella)
